Assay results as given in patent US12521393B2, “Cytotoxicity targeting chimeras for CCR2-expressing cells” (GLAXOSMITHKLINE INTELLECTUAL PROPERTY DEVELOPMENT LIMITED, priority 2021, dated 2026).
“And” between values parts separate entries of the source, which are not always exact repeats. Equal entries are not always repeated.

Key:
[1] = Alternative dosing strategy (Example 206): blood concentration of small molecule ARM compound; type: in vivo; conditions: co-dosed vs sequentially dosed intravenously with anti-cotinine antibody
Excerpt: FIG. 5: Alternative dosing strategy of small molecule ARM compound to anti-cotinine antibody, as described in Example 206, with anti-cotinine antibody administered intravenously and ARM compound (Example 1) administered subcutaneously following a 2-hour delay from antibody dosing at various molar ratios of small molecule ARM: antibody; data shown is blood concentration of small molecule ARM compound at various timepoints following administration.

CCR2+ expressing cells = assay: Alternative dosing strategy (Example 206): percent depletion of CCR2+ expressing cells by flow cytometry; type: in vivo; conditions: co-dosed vs sequentially dosed intravenously with anti-cotinine antibody
[2] = target: anti-cotinine antibody (SEQ ID NO: 9/10, humanized version); assay: SPR binding of anti-cotinine antibody to ARM compounds, Biacore 8k, 25° C., humanized antibody (Example 202)
Excerpt: (§1) Anti-cotinine antibodies having a heavy chain sequence of SEQ ID NO: 9 and a light chain sequence of SEQ ID NO: 10 (humanized version) or a heavy chain sequence of SEQ ID NO: 11 and a light chain sequence of SEQ ID NO: 12 (rabbit version) were captured via the Fc domain to a protein A or A/G surface on flow cell 2 of a CMS sensor chip using the Biacore 8k.
(§2) After antibody capture, a 1500 second wait step was included to reduce drift in the binding step. ARM compounds of Formula (I) were then flowed over the captured antibodies at varying top concentrations ranging from 250 nM to 4 μM (see Table 6 below for top concentration values). The top concentration was diluted 4-fold over 5 dilutions (with a 0 nM compound cycle included to blank subtract the data). Association and dissociation times of the ARMs compounds of Formula (I) varied between experiments as follows and indicated in Table 6 below: reference 1-association for 600 seconds and dissociation for 1200 seconds at 20 μl/min; reference 2-association for 240 seconds and dissociation for 300 seconds at 30 μl/min; reference 3-association for 360 seconds and dissociation for 600 seconds at 30 μl/min. Anti-cotinine antibody bound to the protein A or A/G surface was regenerated using 50 mM NaOH. Experiments were run at 25° C. at pH 7.4 using HBS-EP+ buffer using Biacore 8K control software and evaluated using Biacore Insight Evaluation software. Curves were fit with the 1:1 kinetic fit inherent to the software, utilising a local Rmax and local drift setting.
(§3) Anti-cotinine antibody was tested for binding to ARMs compounds of Formula (I) of the invention in the above assay in or more experimental runs and the results are shown in Table 6 below. Affinity is reported as a pKd value. The pKd value is the negative log of the Kd value, wherein the Kd value is the dissociation constant measured in molar (M) as noted above. For compounds tested in more than one experimental run, the pKd value is reported as an average.

[3] = test system: anti-cotinine antibody (SEQ ID NO: 11/12, rabbit version); assay: SPR binding of anti-cotinine antibody to ARM compounds, Biacore 8k, 25° C., rabbit antibody (Example 202)
Excerpt: as §1, §2, §3

[4] = time reference 3 (association 360 s, dissociation 600 s, 30 μl/min)

| SMILES | PK (blood concentration of small molecule ARM compound) [1] | PD (percent depletion of CCR2+ expressing cells) (CCR2+ expressing cells) | kd ([2]; time reference 1 (association 600 s, dissociation 1200 s, 20 μl/min)) | ka [2, 4] [M⁻¹ s⁻¹] | kd [2, 4] [s⁻¹] | pKd [2, 4] | ka [3, 4] [M⁻¹ s⁻¹] | kd [3, 4] [s⁻¹] | pKd [3, 4] | pKd ([3]; time reference 2 (association 240 s, dissociation 300 s, 30 μl/min)) |
| --- | --- | --- | --- | --- | --- | --- | --- | --- | --- | --- |
| CC(C)N(C)[C@@H]1CC[C@H](N2CC[C@H](Nc3ncnc4ccc(C(F)(F)F)cc34)C2=O)[C@H](NC(=O)[C@H]2CC[C@H](NC(=O)CCCO[C@H]3CC[C@H](OCCNC(=O)[C@H]4CC(=O)N(C)[C@@H]4c4cccnc4)CC3)CC2)C1 [Example 1, (2S,3S)-N-(2-(((1R,4S)-4-(4-(((1R,4R)-4-(((1R,2S,5R)-5-(Isopropyl(methyl)amino)-2-((S)-2-oxo-3-((6-(trifluoromethyl)quinazolin-4-yl)amino)pyrrolidin-1-yl)cyclohexyl)carbamoyl)cyclohexyl)amino)-4-oxobutoxy)cyclohexyl)oxy)ethyl)-1-methyl-5-oxo-2-(pyridin-3-yl)pyrrolidine-3-carboxamide] | unchanged | unchanged | 0.000456 s⁻¹ and 0.000649 s⁻¹ | 1.64e+06 | 0.000414 | 9.6 | 5.57e+06 | 0.000156 | 10.55 |  |
| CN1C(=O)C[C@H](C(=O)NCCO[C@H]2CC[C@H](OCCCC(=O)N[C@H]3CC[C@H](C(=O)N[C@@H]4C[C@H](NC(C)(C)C)CC[C@@H]4N4CC[C@H](Nc5ncnc6ccc(C(F)(F)F)cc56)C4=O)CC3)CC2)[C@H]1c1cccnc1 [Example 10, (2S,3S)-N-(2-(((1R,4S)-4-(4-(((1R,4R)-4-(((1R,2S,5R)-5-(tert-Butylamino)-2-((S)-2-oxo-3-((6-(trifluoromethyl)quinazolin-4-yl)amino)pyrrolidin-1-yl)cyclohexyl)carbamoyl)cyclohexyl)amino)-4-oxobutoxy)cyclohexyl)oxy)ethyl)-1-methyl-5-oxo-2-(pyridin-3-yl)pyrrolidine-3-carboxamide] |  |  |  | 1.42e+06 | 0.000484 | 9.47 |  |  | kd outside | Poor fit |
